Results on eight compounds are retold here after US20180014541A1, “FUNGICIDAL ACTIVE COMPOUND COMBINATIONS” (ARYSTA LIFESCIENCE CORPORATION, priority 2004, published 2018).

The test system of one assay is Rhizoctonia solani. Description: Rhizoctonia solani test (in vitro)/microtiter plates, Example 2. Particulars: 96 h, read-out: % efficacy.
Assay [1] relates to Pyricularia oryzae. Briefly: microbe, parasite or virus in culture. Format: cell-based. Particulars: 96 h, read-out: % efficacy.
Assay [2] deals with Pyricularia oryzae. Description: microbe, parasite or virus in culture. Format: cell-based. As to conditions: 120 h, read-out: % efficacy.
The test system of another assay is Coriolus versicolor. Description: microbe, parasite or virus in culture. Particulars: Trametes versicolor, 72 h, read-out: % efficacy.
For another assay, the system named is Botrytis cinerea. Description: Botrytis cinerea test (in vitro)/microtiter plates, Example 5. The class given is cell-based. As to conditions: 72 h, single active compound, spore suspension in PDB, 3 days incubation, ipconazole as commercially available formulation, read-out: % efficacy.
The test system of assay [3] is Pyricularia oryzae. Description: microbe, parasite or virus in culture. Format: cell-based. As to conditions: 72 h, read-out: % efficacy.
The subject of assay [4] is Pyricularia oryzae. Briefly: microbe, parasite or virus in culture. Format: cell-based. Particulars: 72 h, read-out: % efficacy. The source holds these as a separate data set.

Where two headings read alike, the source gives them in different places.

Regarding `O=C(Nc1ccccc1-c1ccc(Cl)cc1)c1cccnc1Cl` [boscalid], the Emax at 0.1 ppm in the assay on Rhizoctonia solani is 67%.
For `CO/N=C(/C1=NOCCO1)c1ccccc1Oc1ncnc(Oc2ccccc2Cl)c1F` [fluoxastrobin], the Emax at 0.1 ppm in the assay with Pyricularia oryzae [1] came to 82%; in the assay with Rhizoctonia solani, 64%; in the assay on Pyricularia oryzae [3], 80%. Besides, the Emax at 0.3 ppm stood at 86% in the assay on Pyricularia oryzae [2] and 84% with Pyricularia oryzae [4]. Moreover, the Emax at 0.03 ppm in the assay with Coriolus versicolor amounted to 24%. Also, the Emax at 0.003 ppm in the assay with Botrytis cinerea amounted to 9%.
Turning to `OC(Cn1cncn1)(c1ccc(F)cc1)c1ccccc1F` (centres unmarked) [flutriafol], the Emax at 0.3 ppm with Pyricularia oryzae [2] amounted to 6%.
With `CCCCC(C#N)(Cn1cncn1)c1ccc(Cl)cc1` (centres unmarked) [myclobutanil], the Emax at 0.1 ppm in the assay on Pyricularia oryzae [1] was 4%.
Regarding `COCC(=O)N(c1c(C)cccc1C)[C@H](C)C(=O)OC` [mefenoxam, metalaxyl-M], in the assay on Pyricularia oryzae [4], the Emax at 0.3 ppm is 16%.
Turning to `C=CCNC(=O)c1c([Si](C)(C)C)sc(C)c1C` [silthiofam], the Emax at 0.1 ppm in the assay on Pyricularia oryzae [3] came out at 1%.
In the case of `CC(C)C1CCC(Cc2ccc(Cl)cc2)C1(O)Cn1cncn1` (centres unmarked) [ipconazole], the Emax at 0.003 ppm with Botrytis cinerea worked out at 3%.
For the compound `CC1COC(Cn2cncn2)(c2ccc(Oc3ccc(Cl)cc3)cc2Cl)O1` (centres unmarked) [difenoconazole], in the assay on Coriolus versicolor, the Emax at 0.03 ppm turned out to be 93%.
